# Data taken from ChEMBL document CHEMBL6092191, “Advancing Cancer Immunotherapy through Engineering New PD-L1 Degraders: A Comprehensive Study from Small Molecules to PD-L1-Specific Peptide-Drug Conjugates” (J Med Chem, 2024).
# Activity calls are given as the source filed them. The rule behind the calls is not given here.
# Assays:
# [1] = target: COP9 signalosome complex subunit 5 (Homo sapiens) (UniProt Q92905); assay: Induction of PD-L1 degradation in human NCI-H460 cells at 10 to 20 uM incubated for 2 days by Western blot analysis; assay type: cell-based; conditions: dose 10-20 µM, time 2.0 day
# Chain of COP9 signalosome complex subunit 5 (Homo sapiens) (Q92905 2-334 limits assumed, one chain of several): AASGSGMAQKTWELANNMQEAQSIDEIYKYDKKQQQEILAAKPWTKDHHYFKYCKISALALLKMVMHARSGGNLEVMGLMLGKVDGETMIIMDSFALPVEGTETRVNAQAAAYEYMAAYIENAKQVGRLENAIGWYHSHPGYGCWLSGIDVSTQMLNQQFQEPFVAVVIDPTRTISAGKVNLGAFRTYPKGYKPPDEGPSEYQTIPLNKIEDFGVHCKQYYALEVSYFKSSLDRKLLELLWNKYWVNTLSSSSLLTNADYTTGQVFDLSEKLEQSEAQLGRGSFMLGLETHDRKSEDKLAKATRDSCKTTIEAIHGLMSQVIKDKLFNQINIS
# HEK-293T = assay: Antiproliferative activity against HEK293T cells at 10 uM incubated for 4 days; assay type: toxicity, cell-based; conditions: human, 96 h, time 4 day
# 3T3-L1 = assay: Antiproliferative activity against mouse 3T3-L1 cells at 10 uM incubated for 4 days; assay type: toxicity, cell-based; conditions: 3t3-l1, 96 h, time 4 day
# [2] = Antiproliferative activity against human HTori-3 cells at 10 uM incubated for 4 days; assay type: toxicity, cell-based; conditions: htori-3, 96 h, time 4 day
# [3] = system: Lewis lung carcinoma cell line; assay: Antitumor activity against Lewis lung carcinoma cells xenografted in C57BL/6 mouse model at 29.5 mg/kg, ip administered daily for 8 days relative to control; assay type: functional; conditions: 192 h, time 8 day, read-out: TGI
# [4] = system: Lewis lung carcinoma cell line; assay: Antitumor activity against Lewis lung carcinoma cells xenografted in C57BL/6 mouse model assessed as decrease in Ki-67 level at 29.5 mg/kg, ip administered daily for 8 days by IHC analysis; assay type: functional, organism-based; conditions: time 8.0 day
# Mus musculus = assay: In vivo induction of PD-L1 degradation in […] lung carcinoma cells xenografted in C57BL/6 mouse model at 29.5 mg/kg, ip administered daily for 8 days by IHC analysis; assay type: functional, organism-based; conditions: time 8.0 day
# [5] = system: Lewis lung carcinoma cell line; assay: Antitumor T-cell immune response in Lewis lung carcinoma cells xenografted in C57BL/6 mouse model assessed as decrease in CD3+ CD4+ population in CD45+ T cells in tumor at 29.5 mg/kg, ip administered daily for 8 days by flow cytometry; assay type: functional, organism-based; conditions: time 8.0 day
# [6] = system: Lewis lung carcinoma cell line; assay: Antitumor T-cell immune response in Lewis lung carcinoma cells xenografted in C57BL/6 mouse model assessed as increase in CD3+ CD8+ infiltration in CD45+ T cells in tumor at 29.5 mg/kg, ip administered daily for 8 days by flow cytometry; assay type: functional, organism-based; conditions: time 8.0 day
# [7] = Toxicity in C57BL/6 mouse model xenografted with […] cells assessed as obvious body weight change at 29.5 mg/kg, ip administered daily for 8 days; assay type: organism-based; conditions: in vivo, 192 h, time 8 day
# [8] = system: Lewis lung carcinoma cell line; assay: Antitumor T-cell immune response in Lewis lung carcinoma cells xenografted in C57BL/6 mouse model assessed as increase in ratio of CD8+ to CD4+ T cells in tumor at 29.5 mg/kg, ip administered daily for 8 days by flow cytometry; assay type: functional, organism-based; conditions: time 8.0 day
# [9] = Toxicity in C57BL/6 mouse model xenografted with […] cells assessed as damage in heart at 29.5 mg/kg, ip administered daily for 8 days by H and E staining based analysis; assay type: organism-based; conditions: in vivo, 192 h, time 8 day
# [10] = Toxicity in C57BL/6 mouse model xenografted with […] cells assessed as damage in liver at 29.5 mg/kg, ip administered daily for 8 days by H and E staining based analysis; assay type: organism-based; conditions: in vivo, 192 h, time 8 day
# [11] = Toxicity in C57BL/6 mouse model xenografted with […] cells assessed as damage in lung at 29.5 mg/kg, ip administered daily for 8 days by H and E staining based analysis; assay type: organism-based; conditions: in vivo, 192 h, time 8 day
# [12] = Toxicity in C57BL/6 mouse model xenografted with […] cells assessed as damage in kidney at 29.5 mg/kg, ip administered daily for 8 days by H and E staining based analysis; assay type: organism-based; conditions: in vivo, 192 h, time 8 day
# [13] = Toxicity in C57BL/6 mouse model xenografted with […] cells assessed as damage in spleen at 29.5 mg/kg, ip administered daily for 8 days by H and E staining based analysis; assay type: organism-based; conditions: in vivo, 192 h, time 8 day
# [14] = Toxicity in C57BL/6 mouse model xenografted with […] cells assessed as change in ALT level at 29.5 mg/kg, ip administered daily for 8 days; assay type: organism-based, Blood; conditions: in vivo, 192 h, time 8 day
# [15] = Toxicity in C57BL/6 mouse model xenografted with […] cells assessed as change in AST level at 29.5 mg/kg, ip administered daily for 8 days; assay type: organism-based, Blood; conditions: in vivo, 192 h, time 8 day
# [16] = Toxicity in C57BL/6 mouse model xenografted with […] cells assessed as change in BUN level at 29.5 mg/kg, ip administered daily for 8 days; assay type: organism-based, Blood; conditions: in vivo, 192 h, time 8 day
# [17] = Toxicity in C57BL/6 mouse model xenografted with […] cells assessed as change in creatinine level at 29.5 mg/kg, ip administered daily for 8 days; assay type: organism-based; conditions: in vivo, 192 h, time 8 day
compound,measurement,setting,value
COc1cc2c(cc1OC)-c1cc3ccc(OC)c(OCCNC(=O)OCCSSC[C@H](N)C(=O)NCCCCCC(=O)N[C@@H](CC(N)=O)C(=O)N[C@@H](Cc4ccc(O)cc4)C(=O)N[C@@H](CO)C(=O)N[C@@H](CCCCN)C(=O)N4CCC[C@H]4C(=O)N[C@H](C(=O)N[C@@H](CC(=O)O)C(=O)N[C@@H](CCCNC(=N)N)C(=O)N[C@@H](CCC(N)=O)C(=O)N[C@@H](Cc4ccc(O)cc4)C(=O)N[C@@H](Cc4cnc[nH]4)C(=O)N[C@@H](Cc4ccccc4)C(=O)O)[C@@H](C)O)c3c[n+]1CC2.[Cl-],Activity,[1],Active; Comparable To Pmt-O9-1A
same,Activity,HEK-293T,Non-toxic
same,Activity,3T3-L1,Non-toxic
same,Activity,[2],Non-toxic
same,inhibition in vivo at 29.5 mg/kg,[3],89%
same,Activity,[4],Active
same,Activity,Mus musculus,Active
same,Activity,[5],Active
same,Activity,[6],Active
same,Activity,[7],Non-toxic
same,Activity,[8],Active
same,Activity,[9],Non-toxic
same,Activity,[10],Non-toxic
same,Activity,[11],Non-toxic
same,Activity,[12],Non-toxic
same,Activity,[13],Non-toxic
same,Activity,[14],Non-toxic
same,Activity,[15],Non-toxic
same,Activity,[16],Non-toxic
same,Activity,[17],Non-toxic
